{"source": "ChEMBL document CHEMBL4346659", "about": "“Design, synthesis and evaluation of novel 7H-pyrrolo[2,3-d]pyrimidin-4-amine derivatives as potent, selective and reversible Bruton's tyrosine kinase (BTK) inhibitors for the treatment of rheumatoid arthritis” (Eur J Med Chem, 2019)", "key": {"[1]": {"molecular_target": "T1, Tyrosine-protein kinase BTK (Homo sapiens, UniProt Q06187)", "T1 sequence (Q06187 whole entry)": "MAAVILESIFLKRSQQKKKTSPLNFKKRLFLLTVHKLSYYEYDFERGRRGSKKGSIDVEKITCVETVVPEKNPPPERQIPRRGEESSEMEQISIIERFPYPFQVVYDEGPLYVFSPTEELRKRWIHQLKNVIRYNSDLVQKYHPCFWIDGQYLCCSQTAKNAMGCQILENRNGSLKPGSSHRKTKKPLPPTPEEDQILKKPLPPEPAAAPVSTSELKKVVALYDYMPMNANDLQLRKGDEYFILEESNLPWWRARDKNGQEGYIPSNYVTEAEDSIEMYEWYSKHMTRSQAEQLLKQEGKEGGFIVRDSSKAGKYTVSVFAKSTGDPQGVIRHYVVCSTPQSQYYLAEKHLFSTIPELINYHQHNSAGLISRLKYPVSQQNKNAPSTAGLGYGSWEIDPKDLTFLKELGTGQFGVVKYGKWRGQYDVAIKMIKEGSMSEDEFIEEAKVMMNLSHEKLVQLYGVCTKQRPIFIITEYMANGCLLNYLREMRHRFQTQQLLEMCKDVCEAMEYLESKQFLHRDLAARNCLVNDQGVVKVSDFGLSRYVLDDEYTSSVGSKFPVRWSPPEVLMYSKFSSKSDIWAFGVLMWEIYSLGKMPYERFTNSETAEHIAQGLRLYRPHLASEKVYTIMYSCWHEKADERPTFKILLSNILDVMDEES", "experiment": "Inhibition of BTK (unknown origin) at 1 uM in the presence of ATP by caliper mobility shift assay relative to control"}, "Mus musculus [2]": {"test_system": "Mus musculus", "experiment": "Antiarthritic activity in DBA1/J mouse model of collagen-induced arthritis assessed as reduction in clinical arthritic score at 30 mg/kg to 60 mg/kg, po qd", "type": "functional, organism-based"}, "[3]": {"experiment": "Toxicity in DBA1/J mouse model of collagen-induced arthritis assessed as effect on body weight at 30 to 60 mg/kg, po qd", "type": "organism-based", "conditions": "in vivo"}, "[4]": {"molecular_target": "Tyrosine-protein kinase Tec (Homo sapiens, UniProt P42680)", "experiment": "Inhibition of TEC (unknown origin)"}, "Daudi": {"test_system": "Daudi", "experiment": "Antiproliferative activity against human Daudi cells", "type": "functional, cell-based", "conditions": "Homo sapiens, Daudi"}, "[5]": {"molecular_target": "Tyrosine-protein kinase TXK (Homo sapiens, UniProt P42681)", "experiment": "Inhibition of human recombinant TXK using Ulight-Poly GAT[EAY(1:1:1) as substrate measured after 30 mins in the presence of ATP by LANCE method"}, "Mus musculus [6]": {"test_system": "Mus musculus", "experiment": "Antiarthritic activity in DBA1/J mouse model of collagen-induced arthritis assessed as reduction in bone erosion at 60 mg/kg, po qd by micro-CT analysis", "type": "functional, organism-based"}, "[7]": {"molecular_target": "Tyrosine-protein kinase Yes (Homo sapiens, UniProt P07947)", "experiment": "Inhibition of human recombinant YES using biotinyl-beta amyloid beta amyloid beta AYQAEENTYDEYEN as substrate measured after 30 mins in the presence of ATP by HTRF assay"}, "[8]": {"molecular_target": "T1, Tyrosine-protein kinase BTK", "experiment": "Inhibition of BTK auto phosphorylation at Tyr223 residue in human Ramos cells at 100 nM measured after 1 hr by Western blot analysis", "type": "cell-based"}, "Mus musculus [9]": {"test_system": "Mus musculus", "experiment": "Antiarthritic activity in DBA1/J mouse model of collagen-induced arthritis assessed as reduction in cellular infiltration at 60 mg/kg, po qd by Safranin O-staining based assay", "type": "functional, organism-based"}, "[10]": {"molecular_target": "Tyrosine-protein kinase ITK/TSK (Homo sapiens, UniProt Q08881)", "sequence (Q08881 whole entry)": "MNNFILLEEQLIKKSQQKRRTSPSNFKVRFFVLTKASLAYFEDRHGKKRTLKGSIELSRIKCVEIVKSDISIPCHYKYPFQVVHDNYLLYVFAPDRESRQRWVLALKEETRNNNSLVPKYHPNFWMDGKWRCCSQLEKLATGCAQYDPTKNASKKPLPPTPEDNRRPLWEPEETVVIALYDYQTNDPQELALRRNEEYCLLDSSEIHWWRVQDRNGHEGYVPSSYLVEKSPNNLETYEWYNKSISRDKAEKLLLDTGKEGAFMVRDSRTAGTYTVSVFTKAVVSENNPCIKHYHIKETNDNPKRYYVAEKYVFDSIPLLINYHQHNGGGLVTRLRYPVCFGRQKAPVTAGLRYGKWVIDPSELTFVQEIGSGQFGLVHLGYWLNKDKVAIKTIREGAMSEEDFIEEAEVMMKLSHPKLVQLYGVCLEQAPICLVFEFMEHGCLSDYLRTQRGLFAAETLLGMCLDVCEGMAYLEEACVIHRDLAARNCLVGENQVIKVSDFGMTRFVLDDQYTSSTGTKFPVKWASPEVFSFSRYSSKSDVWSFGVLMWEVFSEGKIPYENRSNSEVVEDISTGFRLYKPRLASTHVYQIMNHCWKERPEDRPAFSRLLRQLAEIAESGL", "experiment": "Inhibition of human recombinant ITK using Ulight-TK peptide as substrate measured after 30 mins in the presence of ATP by LANCE method"}, "Mus musculus [11]": {"test_system": "Mus musculus", "experiment": "Antiarthritic activity in DBA1/J mouse model of collagen-induced arthritis assessed as reduction in reduction in paw thickness at 30 mg/kg to 60 mg/kg, po qd", "type": "functional, organism-based"}, "[12]": {"molecular_target": "Epidermal growth factor receptor (Homo sapiens, UniProt P00533)", "experiment": "Inhibition of human recombinant EGFR using Ulight-CAGAGAIETDKEYYTVKD measured after 15 mins in the presence of ATP by LANCE method"}, "[13]": {"molecular_target": "Receptor tyrosine-protein kinase erbB-2 (Homo sapiens, UniProt P04626)", "experiment": "Inhibition of human recombinant HER2 using biotinyl-beta amyloid beta amyloid beta AAEEEEYFELVAKKK measured after 10 mins in the presence of ATP by HTRF assay"}, "[14]": {"molecular_target": "T1, Tyrosine-protein kinase BTK", "experiment": "Inhibition of BTK (unknown origin) in the presence of ATP by caliper mobility shift assay"}, "JeKo-1": {"test_system": "JeKo-1", "experiment": "Antiproliferative activity against human JeKo1 cells", "type": "functional, cell-based", "conditions": "Homo sapiens, JeKo-1"}, "[15]": {"molecular_target": "Tyrosine-protein kinase Lck (Homo sapiens, UniProt P06239)", "sequence (P06239 whole entry)": "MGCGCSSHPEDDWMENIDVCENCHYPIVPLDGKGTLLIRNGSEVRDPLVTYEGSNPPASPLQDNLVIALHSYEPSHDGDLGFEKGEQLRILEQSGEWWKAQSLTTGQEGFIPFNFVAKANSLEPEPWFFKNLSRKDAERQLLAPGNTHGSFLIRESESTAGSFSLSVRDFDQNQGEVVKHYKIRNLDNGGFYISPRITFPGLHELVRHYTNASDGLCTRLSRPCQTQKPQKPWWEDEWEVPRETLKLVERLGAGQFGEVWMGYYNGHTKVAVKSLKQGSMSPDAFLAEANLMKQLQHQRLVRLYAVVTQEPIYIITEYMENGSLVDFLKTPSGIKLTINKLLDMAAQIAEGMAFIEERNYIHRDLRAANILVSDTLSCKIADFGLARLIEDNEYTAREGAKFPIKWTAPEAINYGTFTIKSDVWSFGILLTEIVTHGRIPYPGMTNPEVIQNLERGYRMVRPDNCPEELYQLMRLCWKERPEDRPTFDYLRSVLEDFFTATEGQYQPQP", "experiment": "Inhibition of human recombinant LCK using Ulight-Poly GAT[EAY(1:1:1) as substrate measured after 10 mins in the presence of ATP by LANCE method"}, "[16]": {"molecular_target": "Cytoplasmic tyrosine-protein kinase BMX (Homo sapiens, UniProt P51813)", "sequence (P51813 whole entry)": "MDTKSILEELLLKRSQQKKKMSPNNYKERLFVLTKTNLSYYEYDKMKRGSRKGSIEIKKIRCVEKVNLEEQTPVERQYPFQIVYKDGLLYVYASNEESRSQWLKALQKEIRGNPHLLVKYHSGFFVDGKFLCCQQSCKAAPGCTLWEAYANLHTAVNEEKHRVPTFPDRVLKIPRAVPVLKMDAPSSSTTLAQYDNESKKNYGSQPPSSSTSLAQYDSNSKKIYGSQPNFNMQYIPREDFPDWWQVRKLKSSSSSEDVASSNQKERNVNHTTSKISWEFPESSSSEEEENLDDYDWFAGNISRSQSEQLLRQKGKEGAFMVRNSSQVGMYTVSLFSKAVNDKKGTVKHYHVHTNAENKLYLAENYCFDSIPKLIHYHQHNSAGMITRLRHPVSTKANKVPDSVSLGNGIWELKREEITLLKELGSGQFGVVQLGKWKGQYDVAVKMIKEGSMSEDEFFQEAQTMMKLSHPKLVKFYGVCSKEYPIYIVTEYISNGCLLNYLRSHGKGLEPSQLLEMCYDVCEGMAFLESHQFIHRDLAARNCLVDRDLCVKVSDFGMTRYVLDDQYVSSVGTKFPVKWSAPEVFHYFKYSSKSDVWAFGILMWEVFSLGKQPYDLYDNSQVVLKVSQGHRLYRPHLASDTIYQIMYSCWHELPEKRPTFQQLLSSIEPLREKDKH", "experiment": "Inhibition of BMX (unknown origin)"}, "[17]": {"molecular_target": "T1, Tyrosine-protein kinase BTK", "experiment": "Inhibition of BTK in human Daudi cells assessed as reduction in PLCgamma-2 phosphorylation at Try1217 residue at 1000 nM after1 hr by Western blot analysis", "type": "cell-based"}, "[18]": {"molecular_target": "T1, Tyrosine-protein kinase BTK", "experiment": "Inhibition of BTK in human Ramos cells assessed as reduction in PLCgamma-2 phosphorylation at Try1217 residue at 1000 nM after1 hr by Western blot analysis", "type": "cell-based"}, "Mus musculus [19]": {"test_system": "Mus musculus", "experiment": "Antiarthritic activity in collagen-induced DBA1/J mouse arthritis model assessed as reduction injoint inflammation at 30 mg/kg or 60 mg/kg, po qd cotreated with ibrutinib at 12.5 mg/kg by micro CT analysis", "type": "functional, organism-based"}, "[20]": {"molecular_target": "Tyrosine-protein kinase HCK (Homo sapiens, UniProt P08631)", "sequence (P08631 whole entry)": "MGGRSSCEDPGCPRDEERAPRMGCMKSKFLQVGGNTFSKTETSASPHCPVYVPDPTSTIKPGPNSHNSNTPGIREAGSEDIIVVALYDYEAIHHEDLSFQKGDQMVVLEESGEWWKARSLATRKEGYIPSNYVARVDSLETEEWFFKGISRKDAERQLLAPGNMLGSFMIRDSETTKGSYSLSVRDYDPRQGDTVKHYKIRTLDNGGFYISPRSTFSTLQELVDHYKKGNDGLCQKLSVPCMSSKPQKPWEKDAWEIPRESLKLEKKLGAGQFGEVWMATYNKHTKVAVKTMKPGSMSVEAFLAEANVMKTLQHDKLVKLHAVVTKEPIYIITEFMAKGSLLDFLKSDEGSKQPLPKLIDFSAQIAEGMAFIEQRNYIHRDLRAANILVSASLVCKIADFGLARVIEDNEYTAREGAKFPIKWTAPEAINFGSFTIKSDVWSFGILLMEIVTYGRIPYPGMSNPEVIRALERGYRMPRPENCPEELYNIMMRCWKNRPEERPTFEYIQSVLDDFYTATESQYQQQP", "experiment": "Inhibition of HCK (unknown origin)"}, "[21]": {"molecular_target": "Tyrosine-protein kinase Blk (Homo sapiens, UniProt P51451)", "experiment": "Inhibition of BLK (unknown origin)"}, "[22]": {"molecular_target": "T1, Tyrosine-protein kinase BTK", "experiment": "Inhibition of BTK in human JeKo1 cells assessed as reduction in PLCgamma-2 phosphorylation at Try1217 residue at 1000 nM after1 hr by Western blot analysis", "type": "cell-based"}, "[23]": {"molecular_target": "T1, Tyrosine-protein kinase BTK", "experiment": "Inhibition of BTK auto phosphorylation at Tyr223 residue in human Daudi cells at 100 nM measured after 1 hr by Western blot analysis", "type": "cell-based"}, "Ramos": {"test_system": "Ramos", "experiment": "Antiproliferative activity against human Ramos cells", "type": "functional, cell-based", "conditions": "Homo sapiens, Ramos"}, "[24]": {"molecular_target": "T1, Tyrosine-protein kinase BTK", "experiment": "Inhibition of BTK (unknown origin) at 0.1 uM in the presence of ATP by caliper mobility shift assay relative to control"}, "Mus musculus [25]": {"test_system": "Mus musculus", "experiment": "Antiarthritic activity in DBA1/J mouse model of collagen-induced arthritis assessed as reduction in cartilage damage at 30 mg/kg, po qd by H and E staining based assay", "type": "functional, organism-based"}, "[26]": {"molecular_target": "T1, Tyrosine-protein kinase BTK", "experiment": "Inhibition of BTK auto phosphorylation at Tyr223 residue in human JeKo1 cells at 100 nM measured after 1 hr by Western blot analysis", "type": "cell-based"}, "[27]": {"molecular_target": "Tyrosine-protein kinase Lyn (Homo sapiens, UniProt P07948)", "sequence (P07948 whole entry)": "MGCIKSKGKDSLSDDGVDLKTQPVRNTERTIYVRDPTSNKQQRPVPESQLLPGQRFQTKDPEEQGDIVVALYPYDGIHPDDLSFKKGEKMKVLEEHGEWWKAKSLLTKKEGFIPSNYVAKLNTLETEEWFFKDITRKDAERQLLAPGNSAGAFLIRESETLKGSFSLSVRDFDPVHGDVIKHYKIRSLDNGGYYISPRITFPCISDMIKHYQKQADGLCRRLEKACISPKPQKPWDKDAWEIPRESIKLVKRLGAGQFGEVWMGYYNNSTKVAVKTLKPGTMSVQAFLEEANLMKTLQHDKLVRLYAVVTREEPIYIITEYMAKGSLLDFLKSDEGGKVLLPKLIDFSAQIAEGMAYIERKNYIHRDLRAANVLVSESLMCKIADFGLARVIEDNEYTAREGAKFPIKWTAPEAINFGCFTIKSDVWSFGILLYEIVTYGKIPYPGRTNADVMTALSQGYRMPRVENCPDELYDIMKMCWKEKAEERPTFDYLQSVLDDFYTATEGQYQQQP", "experiment": "Inhibition of human recombinant LYN using biotinyl-beta amyloid beta amyloid beta AKVEKIGEGTYGVVYK as substrate measured after 120 mins in the presence of ATP by HTRF assay"}, "[28]": {"molecular_target": "Proto-oncogene tyrosine-protein kinase Src (Homo sapiens, UniProt P12931)", "experiment": "Inhibition of human recombinant SRC using Ulight-Poly GAT[EAY(1:1:1) as substrate measured after 10 mins in the presence of ATP by LANCE method"}, "[29]": {"molecular_target": "Tyrosine-protein kinase JAK3 (Homo sapiens, UniProt P52333)", "experiment": "Inhibition of human recombinant JAK3 using Ulight-CAGAGAIETDKEYYTVKD measured after 60 mins in the presence of ATP by LANCE method"}, "Mus musculus [30]": {"test_system": "Mus musculus", "experiment": "Antiarthritic activity in DBA1/J mouse model of collagen-induced arthritis assessed as reduction in joint damage at 60 mg/kg, po qd by H and E staining based assay", "type": "functional, organism-based"}, "[31]": {"molecular_target": "Receptor tyrosine-protein kinase erbB-4 (Homo sapiens, UniProt Q15303)", "experiment": "Inhibition of HER4 (unknown origin)"}, "Mus musculus [32]": {"test_system": "Mus musculus", "experiment": "Antiarthritic activity in DBA1/J mouse model of collagen-induced arthritis assessed as reduction in bone erosion at 30 mg/kg, po qd by H and E staining based assay", "type": "functional, organism-based"}, "[33]": {"molecular_target": "Tyrosine-protein kinase Fgr (Homo sapiens, UniProt P09769)", "sequence (P09769 whole entry)": "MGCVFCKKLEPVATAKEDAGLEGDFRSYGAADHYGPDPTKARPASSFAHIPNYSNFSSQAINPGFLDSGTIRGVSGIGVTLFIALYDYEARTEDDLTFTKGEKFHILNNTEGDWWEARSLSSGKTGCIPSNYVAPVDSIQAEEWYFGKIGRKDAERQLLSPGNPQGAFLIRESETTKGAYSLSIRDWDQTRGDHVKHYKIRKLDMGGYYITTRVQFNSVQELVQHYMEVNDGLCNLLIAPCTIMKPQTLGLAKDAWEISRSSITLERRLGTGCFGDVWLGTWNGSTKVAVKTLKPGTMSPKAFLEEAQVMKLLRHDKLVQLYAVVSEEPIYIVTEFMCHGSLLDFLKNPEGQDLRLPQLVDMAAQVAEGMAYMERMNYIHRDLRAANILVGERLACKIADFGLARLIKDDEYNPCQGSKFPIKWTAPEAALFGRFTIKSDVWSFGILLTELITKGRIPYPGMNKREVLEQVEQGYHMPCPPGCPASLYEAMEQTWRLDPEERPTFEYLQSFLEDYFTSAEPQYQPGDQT", "experiment": "Inhibition of human recombinant FGR using Ulight-TK peptide as substrate measured after 60 mins in the presence of ATP by LANCE method"}, "[34]": {"molecular_target": "Tyrosine-protein kinase Fyn (Homo sapiens, UniProt P06241)", "sequence (P06241 whole entry)": "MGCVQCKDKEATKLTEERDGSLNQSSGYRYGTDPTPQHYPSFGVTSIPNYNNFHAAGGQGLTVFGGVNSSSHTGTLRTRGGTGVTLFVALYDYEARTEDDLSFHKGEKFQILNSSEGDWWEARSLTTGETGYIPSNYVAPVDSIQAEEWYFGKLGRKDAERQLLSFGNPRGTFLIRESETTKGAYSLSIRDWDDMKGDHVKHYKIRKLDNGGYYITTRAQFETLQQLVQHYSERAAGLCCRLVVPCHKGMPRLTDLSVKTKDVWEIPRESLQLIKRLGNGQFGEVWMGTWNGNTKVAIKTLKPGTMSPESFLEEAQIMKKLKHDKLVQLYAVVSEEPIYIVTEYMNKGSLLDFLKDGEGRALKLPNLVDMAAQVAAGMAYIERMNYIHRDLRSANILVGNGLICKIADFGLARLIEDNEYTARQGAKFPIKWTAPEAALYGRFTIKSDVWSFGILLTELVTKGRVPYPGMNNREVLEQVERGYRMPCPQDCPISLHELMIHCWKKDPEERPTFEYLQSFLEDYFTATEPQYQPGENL", "experiment": "Inhibition of human recombinant FYN using biotinyl-beta amyloid beta amyloid beta AYQAEENTYDEYEN as substrate measured after 60 mins in the presence of ATP by HTRF assay"}}, "note": "The source made the active and inactive calls. The rule behind the calls is not given here."}
{"smiles": "Nc1ncnc2c1c(-c1ccc(Oc3ccccc3)cc1)cn2C[C@H]1CCCN1C[C@@H]1CO1", "values": [{"measurement": "inhibition", "setting": "[1]", "result": 99.8, "unit": "%"}, {"measurement": "Activity", "setting": "Mus musculus [2]", "result": "Dose-dependent effect"}, {"measurement": "Activity", "setting": "[3]", "result": "Non-Toxic"}, {"measurement": "IC50", "setting": "[4]", "result": 44, "unit": "nM"}, {"measurement": "IC50", "setting": "Daudi", "result": 7040, "unit": "nM"}, {"measurement": "IC50", "setting": "[5]", "result": 358, "unit": "nM"}, {"measurement": "Activity", "setting": "Mus musculus [6]", "result": "Active"}, {"measurement": "IC50", "setting": "[7]", "result": 86, "unit": "nM"}, {"measurement": "inhibition", "setting": "[8]", "result": "Active"}, {"measurement": "Activity", "setting": "Mus musculus [9]", "result": "Active"}, {"measurement": "IC50", "setting": "[10]", "result": "> 1000", "unit": "nM"}, {"measurement": "Activity", "setting": "Mus musculus [11]", "result": "Dose-dependent effect"}, {"measurement": "IC50", "setting": "[12]", "result": "> 1000", "unit": "nM"}, {"measurement": "IC50", "setting": "[13]", "result": "> 1000", "unit": "nM"}, {"measurement": "IC50", "setting": "[14]", "result": 3, "unit": "nM"}, {"measurement": "IC50", "setting": "JeKo-1", "result": 11100, "unit": "nM"}, {"measurement": "IC50", "setting": "[15]", "result": 31, "unit": "nM"}, {"measurement": "IC50", "setting": "[16]", "result": 83, "unit": "nM"}, {"measurement": "inhibition", "setting": "[17]", "result": "Active"}, {"measurement": "inhibition", "setting": "[18]", "result": "Active"}, {"measurement": "Activity", "setting": "Mus musculus [19]", "result": "Dose-dependent effect"}, {"measurement": "IC50", "setting": "[20]", "result": 33, "unit": "nM"}, {"measurement": "IC50", "setting": "[21]", "result": 10, "unit": "nM"}, {"measurement": "inhibition", "setting": "[22]", "result": "Active"}, {"measurement": "inhibition", "setting": "[23]", "result": "Active"}, {"measurement": "IC50", "setting": "Ramos", "result": 8520, "unit": "nM"}, {"measurement": "inhibition", "setting": "[24]", "result": 96.6, "unit": "%"}, {"measurement": "Activity", "setting": "Mus musculus [25]", "result": "Active"}, {"measurement": "inhibition", "setting": "[26]", "result": "Active"}, {"measurement": "IC50", "setting": "[27]", "result": 10, "unit": "nM"}, {"measurement": "IC50", "setting": "[28]", "result": 123, "unit": "nM"}, {"measurement": "IC50", "setting": "[29]", "result": "> 1000", "unit": "nM"}, {"measurement": "Activity", "setting": "Mus musculus [30]", "result": "Active"}, {"measurement": "IC50", "setting": "[31]", "result": 385, "unit": "nM"}, {"measurement": "Activity", "setting": "Mus musculus [32]", "result": "Active"}, {"measurement": "IC50", "setting": "[33]", "result": 28, "unit": "nM"}, {"measurement": "IC50", "setting": "[34]", "result": 232, "unit": "nM"}]}
